As a reminder, the inhibition is how much of the control response was suppressed. As usually defined, the IC50 is the midpoint of a concentration-inhibition curve.

Results on 15 compounds are retold here after ChEMBL document CHEMBL1139717, “Solid-phase combinatorial approach for the optimization of soluble epoxide hydrolase inhibitors” (Bioorg Med Chem Lett, 2006).

The target in test [1] is T1, Bifunctional epoxide hydrolase 2 (Homo sapiens) (UniProt P34913).
T1 sequence (whole entry): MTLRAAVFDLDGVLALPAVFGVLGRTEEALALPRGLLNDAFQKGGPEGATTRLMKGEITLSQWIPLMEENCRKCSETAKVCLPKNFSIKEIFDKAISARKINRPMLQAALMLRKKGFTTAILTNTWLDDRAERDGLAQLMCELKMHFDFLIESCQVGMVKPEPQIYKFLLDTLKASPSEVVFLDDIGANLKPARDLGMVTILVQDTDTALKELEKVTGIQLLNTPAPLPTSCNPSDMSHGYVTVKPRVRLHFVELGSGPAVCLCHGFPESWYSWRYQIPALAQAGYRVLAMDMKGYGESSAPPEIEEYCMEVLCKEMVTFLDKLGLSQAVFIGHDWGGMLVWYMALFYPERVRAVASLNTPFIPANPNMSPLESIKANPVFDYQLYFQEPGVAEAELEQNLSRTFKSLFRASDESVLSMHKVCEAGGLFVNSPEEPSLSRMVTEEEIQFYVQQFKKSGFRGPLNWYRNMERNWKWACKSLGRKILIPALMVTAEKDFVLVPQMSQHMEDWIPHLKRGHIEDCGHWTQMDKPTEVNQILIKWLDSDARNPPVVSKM
Briefly: Inhibition of human recombinant soluble epoxide hydrolase at 100 nM by end-point fluorescent assay.

For test [2], the target named is T2, Bifunctional epoxide hydrolase 2 (Homo sapiens, UniProt P34913).
T2 sequence (P34913 whole entry): T1 sequence (whole entry)
Briefly: Inhibition of human recombinant soluble epoxide hydrolase by kinetic fluorescent assay.

Take `O=C(Nc1c(Cl)cccc1Cl)N[C@H]1CC[C@@H](Oc2ccc(F)cc2)CC1`: the inhibition in test [1] is 1%. The half-inhibitory concentration (IC50) in test [2] amounted to 940 nM.

For the compound `O=C(Nc1ccccc1OC(F)(F)F)N[C@H]1CC[C@@H](Oc2ccc(F)cc2)CC1`, the inhibition in test [1] stood at 2%. The IC50 in test [2] stood at 100 nM.

Turning to `COC(=O)c1ccc(NC(=O)N[C@H]2CC[C@@H](Oc3ccc(F)cc3)CC2)cc1`, the inhibition in test [1] was determined as 62%. In addition, the IC50 in test [2] turned out to be 2.9 nM.

As for `O=C(Nc1ccc(C(F)(F)F)cc1)N[C@H]1CC[C@@H](Oc2ccc(F)cc2)CC1`, the inhibition in test [1] came out at 82%. For the same compound, the IC50 in test [2] amounted to 1.2 nM.

Take `O=C(Nc1cccc(C(=O)O)c1)N[C@H]1CC[C@@H](Oc2ccc(F)cc2)CC1`: the IC50 in test [2] came to 590 nM.

For `O=C(Nc1ccc(Br)cc1)N[C@H]1CC[C@@H](Oc2ccc(F)cc2)CC1`, in test [1], the inhibition worked out at 80%. In addition, in test [2], the 50% inhibitory concentration (IC50) is 0.6 nM.

Take `O=C(Nc1ccc(OC(F)(F)F)cc1)N[C@H]1CC[C@@H](Oc2ccc(F)cc2)CC1`: the inhibition in test [1] was 84%.

Consider `O=C(Nc1ccc(I)cc1)N[C@H]1CC[C@@H](Oc2ccc(F)cc2)CC1`, for which the inhibition in test [1] turned out to be 76%. Besides, in test [2], the IC50 worked out at 1 nM.

On to `O=C(Nc1ccc(Cl)cc1)N[C@H]1CC[C@@H](Oc2ccc(F)cc2)CC1`, for which the inhibition in test [1] is 81%. In addition, in test [2], the IC50 was found to be 0.7 nM.

Turning to `O=C(NC1CCCCCC1)N[C@H]1CC[C@@H](Oc2ccc(F)cc2)CC1`, the inhibition in test [1] worked out at 87%. The concentration for half-maximal inhibition (IC50) in test [2] was found to be 0.5 nM.

On to `CN(C)c1cccc2c(S(=O)(=O)NCCNC(=O)NC34CC5CC(CC(C5)C3)C4)cccc12`, for which the inhibition in test [1] was determined as 19%. For the same compound, the 50% inhibitory concentration (IC50) in test [2] worked out at 30 nM.

Regarding `C[C@@H](NC(=O)NC12CC3CC(CC(C3)C1)C2)c1ccccc1`, in test [1], the inhibition turned out to be 10%. Besides, in test [2], the 50% inhibitory concentration (IC50) turned out to be 100 nM.

Consider `COC(=O)c1cccc(NC(=O)N[C@H]2CC[C@@H](Oc3ccc(F)cc3)CC2)c1`, for which, in test [1], the inhibition was 72%. Moreover, the 50% inhibitory concentration (IC50) in test [2] worked out at 2 nM.

Consider `CC(C)c1cccc(C(C)C)c1NC(=O)N[C@H]1CC[C@@H](Oc2ccc(F)cc2)CC1`, for which the inhibition in test [1] worked out at 5%. Besides, the IC50 in test [2] was 50500 nM.

Turning to `Cc1cccc(C)c1NC(=O)N[C@H]1CC[C@@H](Oc2ccc(F)cc2)CC1`, the inhibition in test [1] worked out at 4%. The IC50 in test [2] came to 1200 nM.
